# Measured values: patent publication US4263283A, “Method for prophylaxis and/or treatment of sickle cell disease” (Ferring Pharmaceuticals, Inc., priority 1980, dated 1981)
# Tests used:
# sickle cell disease = test system: sickle cell disease
# Source text: The patient was a person with sickle cell disease characterized by diffuse pain involving the spine, long bones and abdomen; an elevated serum bilirubin and leukocytosis (the former indicating at least temporary liver damage due to the disease); a reticulocyte count of about 15% (indicating formation of new red blood cells) and a hematocrit of 24-30% (below the normal level of 43-45%). Prior treatment included i.v. hydration, transfusion with packed red blood cells and i.v. narcotics to manage the pain.
# Because of the increasing frequency and severity of sickling crises, they were treated with desmopressin to induce a state of chronic hypo-osmolalityof body fluids by combination with increasd oral fluid administration.
# [1] = in vivo; cited from earlier work
# [2] = desmopressin 40 mcg intranasally every 6 hours + hydrochlorothiazide 100 mg daily, fluid intake 4.3±0.15 l/day
Compound,pain and jaundice after regimen re-instated (sickle cell disease; after crisis signs on withdrawal),period free of any signs or symptoms of sickle cell crisis (sickle cell disease; after re-instatement of the regimen) [months],serum Na after regimen re-instated (sickle cell disease; decreased from 142 mM after re-instatement of desmopressin regimen) [mM],serum Na level at plateau (sickle cell disease; [2]) [mM],urine osmolality at plateau (sickle cell disease; [2]) [m Osm/kg],time free of any signs of crisis (sickle cell disease; first period on the regimen) [days],"untoward side-effects of the induced hyponatremia (nausea, cramps, disturbances in central nervous function) (sickle cell disease; human, in vivo)",vascular or non-vascular smooth muscle side effects [1],"effect on attainment of hyponatremic state (sickle cell disease; 100 mg daily, added to desmopressin and fluid intake of 4-5 l. daily)"
"NC(=O)CC[C@@H]1NC(=O)[C@H](Cc2ccccc2)NC(=O)[C@H](Cc2ccc(O)cc2)NC(=O)CCSSC[C@@H](C(=O)N2CCC[C@H]2C(=O)N[C@H](CCCN=C(N)N)C(=O)NCC(N)=O)NC(=O)[C@H](CC(N)=O)NC1=O [desmopressin, 1-deamino-8-D-arginine vasopressin]",pain and jaundice abated,6,127,125,344±13,54,has not been associated with untoward side-effects,devoid of vascular or non-vascular smooth muscle side effects,
NS(=O)(=O)c1cc2c(cc1Cl)NCNS2(=O)=O [Hydrochlorothiazide],,,,,,,,,facilitated the attainment of a hyponatremic state
